Paper PMC6321166, “Screening of a Library of Oligosaccharides Targeting Lectin LecB of Pseudomonas Aeruginosa and Synthesis of High Affinity Oligoglycoclusters” (Molecules, 2018)

Tests used:
LecB = LecB (Pseudomonas aeruginosa, UniProt Q9HYN5); details: cited from earlier work
LecB (PAO1) = biological target: T1, LecB (PAO1) (Pseudomonas aeruginosa, UniProt Q9HYN5); assay: Competitive assay on microarray: glycans in solution compete with immobilized fucocluster F1 for Alexa 647-LecB; type: binding; design: key: A Grade A was given for oligosaccharides that were able to reduce 80 to 40% of the fluorescent signal at a concentration of 0.1 µM and to reduce it by more than 90% at concentrations of 1, 5 and 15 µM; Grade B indicated a decrease of fluorescence by 70% to 90% at 1 µM and more than 90% at 5 and 15 µM; Grade C corresponded to a decrease of 50 to 70% for 1 µM, around 80% for 5 µM and more than 90% at 15 µM; D indicated a decrease of less than 50% for 1 µM and 80% at 5 and 15 µM; When no inhibition was observed for the four concentrations tested, the grade was E; details: glycan at 0.1, 1.0, 5.0 and 15 µM, Alexa 647-LecB 0.12 µM
T1 construct: purchased Elicityl
T1 sequence (Q9HYN5 entry or part of it): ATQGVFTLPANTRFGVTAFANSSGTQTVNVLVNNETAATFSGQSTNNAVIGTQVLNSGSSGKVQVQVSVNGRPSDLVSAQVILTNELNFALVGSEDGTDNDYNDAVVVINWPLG
Description: F1 was immobilized on a DNA chip, thanks to its DNA sequence. The distance between two F1 on the surface was estimated to be nearly 50 nm. Therefore, the lectin LecB can only bind to one F1 glycocluster at the time. The binding of immobilized F1 to LecB was competed with each of the 156 glycans at four different concentrations (0.1, 1.0, 5.0 and 15 µM). For each glycan and each concentration, the alexa 647-LecB fluorescent signal was recorded and averaged over 16 spots, leading to four-point competition histograms (Figure 2 and Figure S2). 100% signal (see Figure 2) corresponded to the fluorescent signal measured with a reference assay under which no competition could occur. Glycans able to compete with F1 to bind LecB lead to a decrease of the fluorescent signal. Therefore, for a given glycan concentration, strong binding glycans lead to stronger decrease of the fluorescent signal so to lower percentages. Accordingly, tested glycans were classified qualitatively into 5 groups (A, B, C, D and E) depending to their ability to reduce the measured fluorescent signal at the four different concentrations (Figure 2 and Table 1). Grade A are stronger competitor than grade B which are stronger than grade C, and so on. A Grade A was given for oligosaccharides that were able to reduce 80 to 40% of the fluorescent signal at a concentration of 0.1 µM and to reduce it by more than 90% at concentrations of 1, 5 and 15 µM. Grade B indicated a decrease of fluorescence by 70% to 90% at 1 µM and more than 90% at 5 and 15 µM. Grade C corresponded to a decrease of 50 to 70% for 1 µM, around 80% for 5 µM and more than 90% at 15 µM. D indicated a decrease of less than 50% for 1 µM and 80% at 5 and 15 µM.
Cy3-oligonucleotide oligoglycoclusters F1 [46] […] In each microwell, 1.5 µL of the oligoglycocluster mixture was incubated for DNA-directed immobilization (DDI) for 3 h at 37 °C in a water-saturated atmosphere. The slides were washed with saline sodium citrate (SSC) 2× SDS 0.1% at 51 °C for 1 min, SSC 2× for 5 min and rinsed with water.
A library of 156 sugars extracted from biomass or produced by bacterial fermentation (see Supporting Information) issued from the OligoTech® (Elicityl) was screened in a competitive assay. The binding of the 156 carbohydrates was screened toward the lectin LecB (PAO1, Elicityl). Lectin was labeled as previously described using the Alexa Fluor® 647 Microscale Protein Labelling Kit (Invitrogen).
On each slide, nine oligosaccharides and α-L-fucose (as a control) were tested. The inhibitory effect of each oligosaccharide was determined at four concentrations 0.1, 1.0, 5.0 and 15 µM and at 0.5, 2.5, 5.0 and 7.5 mg/L for polymers: Aliginate, galacturonan, galactomannan, glucomannan, mannan, ulvan, xylan and the glucan. To this end, the labeled LecB lectin (0.12 µM final concentration), BSA (2%, final concentration), CaCl2 (7.5 µM, final concentration) in PBS 1× (pH 7.4) were mixed with the solutions of oligosaccharides (from the OligoTech®, Crolles, France). For each concentration, 1.5 µL of the mixture was poured into a microwell, where F1 was previously immobilized. The slides were incubated for 3 h at 37 °C in a water-saturated atmosphere. In each microwell, a competition between the two types of glycoclusters (F1) and oligosaccharide occurred to bind LecB. The microarrays were washed with 0.02% PBS-Tween20 for 5 min at room temperature. The fluorescence signal emitted by the complex glycocluster/Alexa 647-lectin was detected and an average of the mean fluorescence signal of 16 spots per glycocluster was calculated. The percentage of inhibition was calculated as follows: The alexa-647 fluorescent signal for a given sugar was normalized by the Alexa 647 fluorescent signal measured at 0.1 µM of fucose.

LecB from PAO1 = details: read-out: dissociation constant (Kd); cited from earlier work
LecB from PA7 = biological target: LecB from PA7; design: method as in PMID 27303392; details: read-out: dissociation constant (Kd); cited from earlier work
LecB from PA14 = biological target: LecB from PA14; design: method as in PMID 30155149; details: read-out: dissociation constant (Kd); cited from earlier work

Chain of LecB (Q9HYN5 entry or part of it): as above

| Molecule | Grade (ability to reduce the F1/LecB fluorescent signal) (LecB (PAO1)) | also measured |
| --- | --- | --- |
| O=C[C@H](O)[C@@H](O)[C@@H](O)[C@H](O)CO [D-galactose] |  | recognition by LecB (LecB): not recognized |
| Galβ1-4(Fucα1-3)Glc [Id. 33] | B (Grade B indicated a decrease of fluorescence by 70% to 90% at 1 µM and more than 90% at 5 and 15 µM) |  |
| Galα1-3(Galβ1-4GlcNAcβ1-3)2Galβ1-4Glc [Id. 45] | E |  |
| CO[C@@H]1O[C@@H](C)[C@@H](O)[C@@H](O)[C@@H]1O [FucOMe] |  | Kd (LecB from PAO1): 430 nM; Kd (LecB from PA7): 2200 nM; Kd (LecB from PA14): 200 nM |
| Neu5Acα2-3Galβ1-4(Fucα1-3)GlcNAcβ1-3Gal [Id. 29] | C (Grade C corresponded to a decrease of 50 to 70% for 1 µM, around 80% for 5 µM and more than 90% at 15 µM) |  |
| CC(=O)N[C@H]1[C@H](O[C@H]2[C@@H](O)[C@@H](CO)OC(O)[C@@H]2O)O[C@H](CO)[C@@H](O[C@@H]2O[C@H](CO)[C@H](O)[C@H](O)[C@H]2O)[C@@H]1O[C@@H]1O[C@@H](C)[C@@H](O)[C@@H](O)[C@@H]1O (stereo partly shown) [Id. 26, Galβ1-4(Fucα1-3)GlcNAcβ1-3Gal] | C (Grade C corresponded to a decrease of 50 to 70% for 1 µM, around 80% for 5 µM and more than 90% at 15 µM) |  |
| Nc1ccc(S(N)(=O)=O)cc1 [sulfonamide] |  | Kd (LecB; inhibitors of LecB): 3300 nM |
| GalNAcα1-3(Fucα1-2)Gal [Id. 15] | D (D indicated a decrease of less than 50% for 1 µM and 80% at 5 and 15 µM) |  |
| Fucα1-2Galβ1-3(Fucα1-4)GlcNAcβ1-3Gal [Id. 32] | C (Grade C corresponded to a decrease of 50 to 70% for 1 µM, around 80% for 5 µM and more than 90% at 15 µM) |  |
| OC[C@H]1OC(O)[C@@H](O)[C@@H](O)[C@@H]1O (stereo partly drawn) [D-mannose] |  | interaction with LecB, times weaker than L-fucose (LecB): 25 times |
| CC(=O)N[C@H]1[C@H](O[C@H]2[C@@H](O)[C@@H](CO)OC(O)[C@@H]2O)O[C@H](CO)[C@@H](O[C@@H]2O[C@@H](C)[C@@H](O)[C@@H](O)[C@@H]2O)[C@@H]1O[C@@H]1O[C@H](CO)[C@H](O)[C@H](O)[C@H]1O (stereo partly shown) [Id. 30, Galβ1-3(Fucα1-4)GlcNAcβ1-3Gal] | A (A Grade A was given for oligosaccharides that were able to reduce 80 to 40% of the fluorescent signal at a concentration of 0.1 µM and to reduce it by more than 90% at concentrations of 1, 5 and 15 µM) |  |
